The source of these data is patent US20260250290A1 (BRISTOL-MYERS SQUIBB COMPANY, priority 2023, published 2026).

The target of experiment [1] is T1, full length SGK1 (Homo sapiens, UniProt O00141).
T1 construct: 125 μM full length SGK1 (Life Technologies Part #PR7358A); purchased Life Technologies PR7358A
T1 sequence (O00141 1-431): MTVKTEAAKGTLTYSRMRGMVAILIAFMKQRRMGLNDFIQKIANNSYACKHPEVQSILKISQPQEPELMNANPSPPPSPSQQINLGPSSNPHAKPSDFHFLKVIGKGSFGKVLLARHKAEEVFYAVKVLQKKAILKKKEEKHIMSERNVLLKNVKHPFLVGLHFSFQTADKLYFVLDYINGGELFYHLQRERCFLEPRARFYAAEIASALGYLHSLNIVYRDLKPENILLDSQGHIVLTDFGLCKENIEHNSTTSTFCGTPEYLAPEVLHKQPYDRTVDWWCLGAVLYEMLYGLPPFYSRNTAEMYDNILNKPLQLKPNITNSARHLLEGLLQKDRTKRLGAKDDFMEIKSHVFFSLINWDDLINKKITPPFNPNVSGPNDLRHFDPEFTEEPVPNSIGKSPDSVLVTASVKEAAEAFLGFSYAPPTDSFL
The experiment is described as follows: SGK1 inhibition Assay A (Caliper LabChip electrophoretic separation of fluorescent peptide substrate and phosphorylated product). It counts as biochemical. To be noted: Assay A; 20 μM ATP, 40 min incubation; read-out: SGK1 IC50.

The target in experiment [2] is T2, SGK1 (Homo sapiens, UniProt O00141).
T2 sequence (O00141 1-431): T1 sequence (O00141 1-431)
The experiment is described as follows: SGK1 inhibition Assay B (Echo mass spectrometry of phosphorylated peptide product). It counts as biochemical. To be noted: 60 min at room temperature.

`Nc1ncnn2c(-c3ccnc(C(F)F)c3)cc(N3CCC[C@@H](NC(=O)c4ccc(C(F)F)s4)C3)c12` [Example 482, (R)-N-(1-(4-amino-7-(2-(difluoromethyl)pyridin-4-yl)pyrrolo[2,1-f][1,2,4]triazin-5-yl)piperidin-3-yl)-5-(difluoromethyl)thiophene-2-carboxamide]: the IC50 (usually the concentration that inhibits the measured activity by half) was determined as 6 nM in experiment [1] and 3 nM in experiment [2].
As for `COC[C@@H](C)NC1CCC(Oc2nc(C)sc2C(=O)N[C@@H]2CCCN(c3cc(C4=CC(=O)OC4)n4ncnc(N)c34)C2)CC1` (stereo partly drawn) [Example 996, N—((R)-1-(4-amino-7-(5-oxo-2,5-dihydrofuran-3-yl)pyrrolo[2,1-f][1,2,4]triazin-5-yl)piperidin-3-yl)-4-((4-(((R)-1-methoxypropan-2-yl)amino)cyclohexyl)oxy)-2-methylthiazole-5-carboxamide], half-maximal inhibition in experiment [2] (IC50) was put at 1.1 nM.
The same measure, in the same setting: the figure for `Cc1nc(OC2CC3CC2CN3C(C)C)c(C(=O)N[C@@H]2CCCN(c3cc(-c4ccc(-n5cnnn5)c(F)c4)n4ncnc(N)c34)C2)s1` (single isomer, unassigned) [Example 949] is 0.8 nM; for `[2H]C([2H])([2H])N(C1CCC(Oc2nc(C)sc2C(=O)N[C@@H]2CCCN(c3cc(-c4ccnc(OC)n4)n4ncnc(N)c34)C2)CC1)C([2H])([2H])[2H]` (stereo partly drawn) [Example 1031, (R)—N-(1-(4-amino-7-(2-methoxypyrimidin-4-yl)pyrrolo[2,1-f][1,2,4]triazin-5-yl)piperidin-3-yl)-4-((4-(bis(methyl-d3)amino)cyclohexyl)oxy)-2-methylthiazole-5-carboxamide] it is 1.1 nM.
